The values below come from US7928099B2, “Pyrimido [4,5-D] azepine derivatives as 5-HT2c agonists” (Pfizer Inc, priority 2007, dated 2011).

For orientation: Ki means the equilibrium dissociation constant of an inhibitor or competing ligand from its target. In general, Emax refers to the size of the effect at its maximum, as opposed to the concentration needed. By EC50 is commonly meant the concentration that produces a half-maximal response.

The target of assay [1] is T1, human recombinant 5-HT2c receptor (Homo sapiens, UniProt P28335).
T1 construct: expressed in transfected cells; host or cells: CHO K1 (Chinese hamster ovary), stably transfected
T1 sequence (P28335 33-458): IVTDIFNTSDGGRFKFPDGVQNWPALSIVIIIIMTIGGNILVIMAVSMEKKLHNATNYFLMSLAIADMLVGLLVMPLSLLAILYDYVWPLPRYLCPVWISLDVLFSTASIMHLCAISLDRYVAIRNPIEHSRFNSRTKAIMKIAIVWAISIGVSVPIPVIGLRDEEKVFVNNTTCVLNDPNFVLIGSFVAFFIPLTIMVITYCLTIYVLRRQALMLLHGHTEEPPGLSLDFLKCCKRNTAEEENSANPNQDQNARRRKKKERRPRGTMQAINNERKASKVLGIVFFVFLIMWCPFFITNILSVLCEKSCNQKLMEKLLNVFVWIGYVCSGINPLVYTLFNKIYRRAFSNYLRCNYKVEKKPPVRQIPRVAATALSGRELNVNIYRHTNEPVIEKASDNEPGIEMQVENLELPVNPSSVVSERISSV
In words: 3H-meselurgine radioligand binding SPA, membranes from Swiss 3T3 cells (Method 2). Conditions: 3H-meselurgine displacement, Cheng-Prusoff; Swiss 3T3 membranes; read-out: Binding Affinity Ki. On the procedure: The compounds of the invention were evaluated for biological activity by measuring the agonist affinity (EC50) and efficacy (Emax) at the human recombinant 5-HT2c receptor expressed in CHO K1 cells, using a fluorescent based Ca^2+ mobilisation assay format compatible with FLIPR technology (Method 1). Additionally, the binding activity of a compound was determined by measuring its affinity for the human recombinant 5-HT2c receptor membranes from Swiss 3T3 cells (Method 2).
The compounds were tested for biological activity by their ability to inhibit binding of the radioligand ^3H-meselurgine at the human recombinant 5-HT2C receptor expressed in the Swiss 3T3 cells using a scintillation proximity assay (SPA) technology.
Swiss 3T3 stably transfected with the 5-HT2C receptor were cultured under standard cell culture techniques. Specifically, cells were grown in 50 mL growth medium (Dulbecco's Modified Eagle's Medium (DMEM) culture media supplemented with 10% dialysed foetal calf serum (FCS), 2 mM penicillin/streptomycin and 20 μg/mL geneticin) in 225 cm^2 flasks at 37° C. and 5% CO2. Cells were grown to 60-80% confluency, harvested using trypsin-EDTA and pelleted by centrifugation for long-term storage at −80° C.
Cell pellets were thawed on ice and resuspended in 3 mL of membrane preparation buffer (see Media and Buffers for composition) per 1 mL of packed cell. The suspension was homogenised on ice for several 5 s intervals using a hand-held homogeniser. The homogenate was then centrifuged at 1,000 rpm for 5 min at 4° C.
The supernatants were then collected and retained. Initial cell & nuclei pellets (P1) were subsequently rehomogenised and centrifuged using the conditions cited above, and the supernatants collected and pooled with those retained from the first spin.
The pooled supernatants were centrifuged at 19,500 rpm for 45 min at 4° C., and the supernatants discarded. The pellets (P2) were then resuspended in 3 mL of membrane preparation buffer per 1 mL of the original packed cell volume. Protein concentrations were subsequently measured and the membrane suspension was finally frozen in aliquots of set volume and stored at −80° C. prior to use in assays.
For each batch of membrane used, optimal concentrations of Polylysine YSi SPA beads and membrane were determined. The assay free radioligand concentration was expressed as a percentage of the total free radioligand concentration to give an estimate of the radioligand depletion.
The affinity of ^3H-meselurgine for the human recombinant 5-HT2c receptor was determined for each membrane batch at the selected protein and bead concentrations. […] The mean KD for ^3H-meselurgine at a batch of membranes was determined from data from a minimum of three separate assays.
The required amount of membrane, was thawed on ice and added to a pre-determined volume of bead suspension in 50 mM HEPES buffer, pH 7.4. The beads were then pre-coupled by incubating the predetermined protein quantity per mg of bead on a roller 4° C. for 1 h. Subsequently, the bead/membrane complex was spun down at 1000 rpm for 5 min. The resulting pellet was resuspended in assay buffer at the specific concentration required for the final assay.
An aliquot of [^3H]-meselurgine stock was diluted in binding assay buffer to give a pre-determined final assay concentration less than the equilibrium dissociation constant (KD) value.
All test compounds were prepared at a concentration of 4 mM in 100% dimethyl sulphoxide (DMSO) from dry samples.
The same volume of assay buffer was added to specific wells of the plate to enable subsequent measurement of total radioligand binding. Furthermore, 5 μL of Mianserin at 25 μM (2.5 μM final assay concentration was subsequently added to pre-determined wells to determine non-specific binding (NSB).

Assay [2] has as its target T1, human recombinant 5-HT2c receptor. In words: FLIPR fluorescent Ca2+ mobilisation agonist assay in CHO K1 cells (Method 1). The format is cell-based. Conditions: for Emax: percentage of mean maximal response to 10 μM 5-HT; for EC50: agonist affinity, FLIPR.

Counter-ions that a name gives are not always drawn.

Regarding `c1ccc(Cc2nc3c(c(NCCn4cccn4)n2)CCNCC3)cc1` [Example 27, 2-benzyl-N-[2-(1H-pyrazol-1-yl)ethyl]-6,7,8,9-tetrahydro-5H-pyrimido[4,5-d]azepin-4-amine hydrochloride], the Ki in assay [1] worked out at 25.4 nM. In addition, the Emax in assay [2] (CHO-K1, efficacy) amounted to 35%. Also, the EC50 in assay [2] is 57.2 nM.
Consider `c1ccc(Cc2nc3c(c(N4CCCCC4)n2)CCNCC3)cc1` [Example 29, 2-benzyl-4-piperidin-1-yl-6,7,8,9-tetrahydro-5H-pyrimido[4,5-d]azepine hydrochloride], for which the Ki in assay [1] was 177 nM. Further, the Emax in assay [2] (CHO-K1, efficacy) was found to be 37.7%. The EC50 in assay [2] worked out at 962 nM.
`CC1CCCN(c2nc(Cc3ccccc3)nc3c2CCNCC3)C1` (stereo not drawn) [Example 30, 2-benzyl-4-(3-methylpiperidin-1-yl)-6,7,8,9-tetrahydro-5H-pyrimido[4,5-d]azepine hydrochloride]: the Ki in assay [1] was determined as 99.1 nM. Also, the Emax in assay [2] (CHO-K1, efficacy) came out at 54.8%. In addition, the EC50 in assay [2] turned out to be 984 nM.
As for `CC(CO)Nc1nc(Cc2ccccc2)nc2c1CCNCC2` (stereo not drawn) [Example 33, 2-[(2-benzyl-6,7,8,9-tetrahydro-5H-pyrimido[4,5-d]azepin-4-yl)amino]propan-1-ol hydrochloride], the Ki in assay [1] is 125 nM. In addition, the Emax in assay [2] (CHO-K1, efficacy) was 58.5%. Moreover, the EC50 in assay [2] amounted to 424 nM.
On to `OC1CCN(c2nc(Cc3ccccc3)nc3c2CCNCC3)CC1` [Example 38, 1-(2-benzyl-6,7,8,9-tetrahydro-5H-pyrimido[4,5-d]azepin-4-yl)piperidin-4-ol hydrochloride], for which the Ki in assay [1] turned out to be 514 nM. Moreover, in assay [2] (CHO-K1, efficacy), the Emax came to 66%. The EC50 in assay [2] is 336 nM.
Take `c1ccc(Cc2nc3c(c(NC4CCOC4)n2)CCNCC3)cc1` (stereo not drawn) [Example 39, 2-benzyl-N-(tetrahydrofuran-3-yl)-6,7,8,9-tetrahydro-5H-pyrimido[4,5-d]azepin-4-amine hydrochloride]: the Ki in assay [1] came to 696 nM. Moreover, in assay [2] (CHO-K1, efficacy), the Emax worked out at 30.6%. Also, the EC50 in assay [2] was determined as 516 nM.
For `N#CC1CCCN(c2nc(Cc3ccccc3)nc3c2CCNCC3)C1` (stereo not drawn) [Example 40, 1-(2-benzyl-6,7,8,9-tetrahydro-5H-pyrimido[4,5-d]azepin-4-yl)piperidine-3-carbonitrile hydrochloride], the Ki in assay [1] came out at 413 nM. Also, the Emax in assay [2] (CHO-K1, efficacy) was found to be 40.6%. The EC50 in assay [2] was 309 nM.
Take `OC1(CNc2nc(Cc3ccccc3)nc3c2CCNCC3)CCC1` [Example 41, 1-{[(2-benzyl-6,7,8,9-tetrahydro-5H-pyrimido[4,5-d]azepin-4-yl)amino]methyl}cyclobutanol hydrochloride]: the Ki in assay [1] was found to be 86.9 nM. For the same compound, the Emax in assay [2] (CHO-K1, efficacy) was 74.7%. The EC50 in assay [2] came out at 57 nM.
On to `OCC1CCN(c2nc(Cc3ccccc3)nc3c2CCNCC3)C1` (stereo not drawn) [Example 42, [1-(2-benzyl-6,7,8,9-tetrahydro-5H-pyrimido[4,5-d]azepin-4-yl)pyrrolidin-3-yl]methanol hydrochloride], for which the Ki in assay [1] is 102 nM. Also, the Emax in assay [2] (CHO-K1, efficacy) came to 75.4%. Also, the EC50 in assay [2] came to 67 nM.
With `FC1CCN(c2nc(Cc3ccccc3)nc3c2CCNCC3)C1` (stereo not drawn) [Example 43, 2-benzyl-4-(3-fluoropyrrolidin-1-yl)-6,7,8,9-tetrahydro-5H-pyrimido[4,5-d]azepine hydrochloride], in assay [1], the Ki is 61 nM. In assay [2] (CHO-K1, efficacy), the Emax was 52.6%. Besides, in assay [2], the EC50 stood at 190 nM.
For the compound `OC1CCN(c2nc(Cc3ccccc3)nc3c2CCNCC3)C1` (stereo not drawn) [Example 44, 1-(2-benzyl-6,7,8,9-tetrahydro-5H-pyrimido[4,5-d]azepin-4-yl)pyrrolidin-3-ol hydrochloride], the Ki in assay [1] was 139 nM. Besides, the Emax in assay [2] (CHO-K1, efficacy) was determined as 75.5%. In addition, the EC50 in assay [2] came out at 136 nM.
The matching figures for `C[C@H]1COCCN1c1nc(Cc2ccccc2)nc2c1CCNCC2` [Example 45, 2-benzyl-4-[(3S)-3-methylmorpholin-4-yl]-6,7,8,9-tetrahydro-5H-pyrimido[4,5-d]azepine hydrochloride]: 28.4 nM, 88.4% and 69.5 nM.
As to `CN(C)c1ncc2c(n1)CCNCC2` [Example 50, N,N-dimethyl-6,7,8,9-tetrahydro-5H-pyrimido[4,5-d]azepin-2-amine hydrochloride], in assay [1], the Ki was determined as 552 nM. The Emax in assay [2] (CHO-K1, efficacy) stood at 100%. The EC50 in assay [2] was 481 nM.
For `CCc1nc(Cc2ccccc2)nc2c1CCNCC2` [Example 52, 2-Benzyl-4-ethyl-6,7,8,9-tetrahydro-5H-pyrimido[4,5-d]azepine], in assay [1], the Ki amounted to 142 nM. Also, the Emax in assay [2] (CHO-K1, efficacy) stood at 71.6%. In addition, the EC50 in assay [2] is 314 nM.
`c1ccc(Cc2nc3c(c(C4CC4)n2)CCNCC3)cc1` [Example 53, 2-Benzyl-4-cyclopropyl-6,7,8,9-tetrahydro-5H-pyrimido[4,5-d]azepine]: the Ki in assay [1] was 105 nM. For the same compound, the Emax in assay [2] (CHO-K1, efficacy) is 49.6%. The EC50 in assay [2] came out at 293 nM.
With `c1ccc(Cc2nc3c(c(-n4ccnc4)n2)CCNCC3)cc1` [Example 55, 2-Benzyl-4-imidazol-1-yl-6,7,8,9-tetrahydro-5H-pyrimido[4,5-d]azepine], in assay [1], the Ki worked out at 380 nM. Further, the Emax in assay [2] (CHO-K1, efficacy) turned out to be 72.6%. Also, the EC50 in assay [2] stood at 263 nM.
Regarding `Clc1cccc(Cc2ncc3c(n2)CCNCC3)c1` [Example 56, 2-(3-Chlorobenzyl)-6,7,8,9-tetrahydro-5H-pyrimido[4,5-d]azepine], the Ki in assay [1] is 83.9 nM. For the same compound, the EC50 in assay [2] was determined as 180 nM. Further, the Emax in assay [2] (efficacy) turned out to be 55.9%.
With `CCOc1nc(C(C)c2ccccc2)nc2c1CCNCC2` (stereo not drawn) [Example 59, 4-Ethoxy-2-(1-phenylethyl)-6,7,8,9-tetrahydro-5H-pyrimido[4,5-d]azepine], in assay [1], the Ki is 49.3 nM. The Emax in assay [2] (CHO-K1, efficacy) was 33.1%. Also, in assay [2], the EC50 is 107 nM.
As to `Fc1ccc(Cc2ncc3c(n2)CCNCC3)cc1` [Example 62, 2-(4-Fluorobenzyl)-6,7,8,9-tetrahydro-5H-pyrimido[4,5-d]azepine], the Ki in assay [1] is 471 nM. In assay [2] (CHO-K1, efficacy), the Emax worked out at 59.6%. The EC50 in assay [2] came out at 309 nM.
Take `FC(F)(F)c1cccc(Cc2ncc3c(n2)CCNCC3)c1` [Example 63, 2-[3-(Trifluoromethyl)benzyl]-6,7,8,9-tetrahydro-5H-pyrimido[4,5-d]azepine]: the Ki in assay [1] was determined as 308 nM. The Emax in assay [2] (CHO-K1, efficacy) is 44.1%. Moreover, the EC50 in assay [2] turned out to be 298 nM.
As to `Cc1cccc(Cc2ncc3c(n2)CCNCC3)c1` [Example 65, 2-(3-Methylbenzyl)-6,7,8,9-tetrahydro-5H-pyrimido[4,5-d]azepine], the Ki in assay [1] came to 244 nM. For the same compound, in assay [2] (CHO-K1, efficacy), the Emax is 83.9%. Further, in assay [2], the EC50 turned out to be 211 nM.
The matching figures for `Cc1ccccc1Cc1ncc2c(n1)CCNCC2` [Example 66, 2-(2-Methylbenzyl)-6,7,8,9-tetrahydro-5H-pyrimido[4,5-d]azepine]: 304 nM, 70.5% and 332 nM.
